Reference: patent US20090182058A1, “Novel Chalcone Derivatives With Antimitotic Activity” (priority 2006, published 2009)

Columns and labels:
K562 cells = assay: Cycle test: blocking in the G2/M phase evaluated by flow cytometry; type: cell-based, human; conditions: for G2/M inhibition in %: 24 hours, 10 μM, cells blocked in G2/M phase; for G2/M cycle blocking, dose-response (FIG. 1): concentration of the order of one micromolar
Description: THE CYCLE TEST CORRESPONDS TO THE ANALYSIS OF THE BLOCKING IN THE G2/M PHASE OF A LINE OF HUMAN LEUKEMIC CELLS AS EVALUATED BY FLOW CYTOMETRY.
The k562 cells are incubated for 24 hours in the absence or in the presence of compounds according to the invention and/or reference compounds such as vincristine. In a first phase, the compounds are used at a concentration of 10 μM, whereby dose-response type studies may be carried out secondarily. After 24 hours the cells are exposed to propidium iodide, a DNA intercalating agent, and analyzed in flow cytometry. The results are expressed as a percentage of the cells blocked in the G2/M phase of the cell cycle.

L1210 = assay: MTT test (in vitro cytotoxicity); type: cell-based; conditions: Mus musculus, 72 hours
Description: (§1) The MMT test is a metabolic test used for evaluating the inhibition of proliferation of tumoral lines by a compound according to the invention. Several representative tumoral lines of different tumoral types such as breast cancer, colon cancer, otorhinolaryngological tumors, lung cancer, are incubated in a 96-well plate at variable concentrations of a compound according to the invention, for 72 hours and MTT is then added for a period of 1 hour. The MTT is a substrate of mitochondrial enzymes which is degraded in insoluble formazan blue. The crystals are then re-solubilized in isopropanol-HCl 0.1N and the plates are analyzed on an ELISA plate reader. Relative survival is calculated relatively to cells which have not been exposed to the compound according to the invention. The IC50 or inhibiting concentration 50 is the concentration value of the investigated compound according to the invention which induces a 50% reduction of proliferation relatively to the control.

MCF7 = assay: MTT test (in vitro cytotoxicity); type: cell-based; conditions: Homo sapiens, 72 hours
Description: as §1

RL = assay: MTT test (in vitro cytotoxicity); type: cell-based; conditions: Homo sapiens, 72 hours
Description: as §1

SW48 = assay: MTT test (in vitro cytotoxicity); type: cell-based; conditions: Homo sapiens, 72 hours
Description: as §1

HNO 150 = assay: MTT test (in vitro cytotoxicity); type: cell-based; conditions: 72 hours
Description: as §1

HCT 116 = assay: MTT test (in vitro cytotoxicity); type: cell-based; conditions: Homo sapiens, 72 hours
Description: as §1

NIH 3T3 = assay: MTT test (in vitro cytotoxicity); type: cell-based; conditions: Mus musculus, NIH3T3, 72 hours
Description: as §1

Messa = assay: MTT test (in vitro cytotoxicity); type: cell-based; conditions: Homo sapiens, MES-SA, 72 hours
Description: as §1

N2A = assay: MTT test (in vitro cytotoxicity); type: cell-based; conditions: Mus musculus, 72 hours
Description: as §1

K562 = assay: MTT test (in vitro cytotoxicity); type: cell-based; conditions: Homo sapiens, 72 hours
Description: as §1

CEM = assay: MTT test (in vitro cytotoxicity); type: cell-based; conditions: Homo sapiens, CCRF-CEM, 72 hours
Description: as §1

With `COc1ccc(C(=O)/C=C/c2c(OC)cc(OC)cc2OC)c(O)c1` [Example 20, 2′-hydroxy-2,4,4′,6-tetramethoxychalcone] the melting point was 167 °C.
In the case of `COc1ccc(C(=O)/C=C/c2c(OC)cc(OC)cc2OC)c(OC)c1` [Example 3, 2,2′,4,4′,6-pentamethoxychalcone], the melting point is reported as 162 °C and the “G2/M inhibition in %” value (K562 cells) is reported as 86%.
With `CCOc1cc(OCC)c(/C=C/C(=O)c2c(OC)cccc2OC)c(OCC)c1` [Example 8, 2′,6′-dimethoxy-2,4,6-triethoxychalcone] the melting point was 154 °C.
`COc1cccc(OC)c1C(=O)/C=C/c1c(OC)c(F)c(OC)c(F)c1OC` [Example 14, 3,5-difluoro-2,2′,4,6,6′-pentamethoxychalcone] gave a melting point of 108 °C.
`COc1ccc(C(=O)/C=C/c2cc(OC)c(OC)cc2OC)c(O)c1` [Example 19, 2′-hydroxy-2,4,4′,5-tetramethoxychalcone] gave a melting point of 170 °C.
Compound `COc1cc(OC)c(/C=C/C(=O)c2c(OC)cc(OC)cc2OC)c(OC)c1` [Example 2, 2,2′,4,4′,6,6′-hexamethoxychalcone] has an IC50 (L1210) of 8.5 µM, an IC50 (MCF7) of 52 µM and an IC50 (RL) of 900 nM. The IC50 (SW48) was 800 nM, the IC50 (HNO 150) was 10 µM and the IC50 (HCT 116) was 1000 nM. It also gave an IC50 (NIH 3T3) of 30 µM, an IC50 (Messa) of 2200 nM and an IC50 (N2A) of 4 µM. The IC50 (K562) was 50 µM, the IC50 (CEM) was 1900 nM and the melting point was 150 °C. For the same compound, the “G2/M inhibition in %” value (K562 cells) was 86% and the “G2/M cycle blocking, dose-response (FIG. 1)” value (“G2/M cycle blocking” below) (K562 cells) was “significant G2/M cycle blocking”.
Compound `COc1cc(OC)c(C(=O)/C=C/c2c(OC)cccc2OC)c(OC)c1` [Example 18, 2,2′,4′,6,6′-pentamethoxychalcone] has a melting point of 164 °C.
In the case of `COc1cc(OC)c(/C=C/C(=O)c2c(OC)cc(N)cc2OC)c(OC)c1` [Example 9, 4′-amino-2,2′,4,6,6′-pentamethoxychalcone], the melting point is reported as 188 °C.
With `COc1ccc(/C=C/C(=O)c2c(OC)cccc2OC)c(OC)c1OC` [Example 11, 2,2′,3,4,6′-pentamethoxychalcone] the melting point was 129 °C.
`CCOc1cccc(OCC)c1C(=O)/C=C/c1c(OC)cc(OC)cc1OC` [Example 7, 2′,6′-diethoxy-2,4,6-trimethoxychalcone] gave a melting point of 102 °C.
For `COc1ccc(/C=C/C(=O)c2c(OC)cc(OC)cc2OC)c(OC)c1` [Example 16, 2,2′,4,4′,6′-pentamethoxychalcone], the melting point was 105 °C.
Work on `COc1cccc(OC)c1/C=C/C(=O)c1c(OC)cccc1OC` [Compound A, reference compound] yielded an IC50 (L1210) of 34 µM, an IC50 (MCF7) of 75 µM and an IC50 (RL) of 40000 nM. It also gave an IC50 (SW48) of 10000 nM, an IC50 (HNO 150) of 62 µM and an IC50 (HCT 116) of 9000 nM. For the same compound, the IC50 (NIH 3T3) was 60 µM, the IC50 (Messa) was 10000 nM and the IC50 (N2A) was 55 µM. The IC50 (K562) was 80 µM, the IC50 (CEM) was 6000 nM and the “G2/M inhibition in %” value (K562 cells) was 78%. For the same compound, the “G2/M cycle blocking” value (K562 cells) was “no activity”.
Work on `COc1ccc(C(=O)/C=C/c2ccc(OC)c(OC)c2OC)c(O)c1` [Example 22, 2′-hydroxy-2,3,4,4′-tetramethoxychalcone] yielded a melting point of 152 °C.
Work on `COc1ccc(C(=O)/C=C/c2cc(OC)c(OC)c(OC)c2)c(O)c1` [Example 21, 2′-hydroxy-3,4,4′,5-tetramethoxychalcone] yielded a melting point of 110 °C.
Compound `COc1cc(OC)c(OC)cc1/C=C/C(=O)c1c(OC)cccc1OC` [Example 12, 2,2′,4,5,6′-pentamethoxychalcone] has a melting point of 143 °C.
Work on `CCOc1cc(OCC)c(/C=C/C(=O)c2c(OCC)cc(OCC)cc2OCC)c(OCC)c1` [Example 10, 2,2′,4,4′,6,6′-hexaethoxychalcone] yielded a melting point of 160 °C.
For `COc1cc(/C=C/C(=O)c2c(OC)cccc2OC)cc(OC)c1OC` [Example 13, 2′,3,4,5,6′-pentamethoxychalcone], the melting point was 136 °C.
For `COc1cccc(OC)c1C(=O)/C=C/c1c(C)cc(C)cc1C` [Example 15, 2′,6′-dimethoxy-2,4,6-trimethylchalcone], the melting point was 126 °C.
With `COc1cc(OC)c(/C=C/C(=O)c2c(OC)cccc2OC)c(OC)c1` [Example 1, 2,2′,4,6,6′-pentamethoxychalcone] the IC50 (L1210) was 7 µM, the IC50 (MCF7) was 60 µM and the IC50 (RL) was 800 nM. It also gave an IC50 (SW48) of 250 nM, an IC50 (HNO 150) of 1.3 µM and an IC50 (HCT 116) of 450 nM. It also gave an IC50 (NIH 3T3) of 30 µM, an IC50 (Messa) of 1000 nM and an IC50 (N2A) of 2.2 µM. The IC50 (K562) was 50 µM, the IC50 (CEM) was 650 nM and the “G2/M inhibition in %” value (K562 cells) was 84%. For the same compound, the “G2/M cycle blocking” value (K562 cells) was “significant G2/M cycle blocking”.
